Laboratory results: patent US8552004B2, “Chemical compounds” (AstraZeneca AB, priority 2010, dated 2013)
Where two headings read alike, the source gives them in different places.

Assays:
[1] = target: T1, ATR (Homo sapiens (Human), UniProt Q13535); assay: Enzyme Assay - ATR (Test (a)); assay type: biochemical; details: ATR from HeLa nuclear extract, GST-p53N66 substrate, 3 μM ATP, arithmetic mean
Description: ATR-antibody complexes were isolated from nuclear extract by incubating with protein A-Sepharose beads (Sigma, #P3476) for 1 hour and then through centrifugation to recover the beads. […] After 10 minutes with gentle shaking, ATP was added to a final concentration of 3 μM and the reaction continued at 37° C. for an additional 1 hour. […] Enhanced chemiluminescence solution (NEN, Boston, Mass.) was used to produce a signal and chemiluminescent detection was carried out via a TopCount (Packard, Meriden, Conn.) plate reader.

[2] = target: T1, ATR; assay: Cellular Assay - ATR, phosphorylation of Chk1 (Ser 345) in HT29 cells after 4NQO (Test (b)); assay type: cell-based; details: cell assay Test (b); pChk1 Ser345 in HT29 cells, 3 μM 4NQO; arithmetic mean
Description: ATM and ATR have distinct and overlapping responses to DNA damage. They must participate together and responses must be co-ordinated. Both pathways may be activated by ionising radiation, however only ATR is activated by UV. Since UV treatment is not practical for use in a high throughput cell assay, the UV mimetic 4NQ0 (Sigma) was chosen to activate the ATR DNA damage response pathway.
Chk1, a downstream protein kinase of ATR, plays a key role in DNA damage checkpoint control. Activation of Chk1 involves phosphorylation of Ser317 and Ser345 (regarded as the preferential target for phosphorylation/activation by ATR). […] Compounds dose ranges were created by diluting in 100% DMSO and then further into assay media (EMEM, 10% FCS, 1% glutamine) using a Labcyte Echo Acoustic dispensing instrument. Cells were plated in 384 well Costar plates at 9×10^4 cells per ml in 40 μL EMEM, 10% FCS, 1% glutamine and grown for 24 hrs. Following addition of compound the cells were incubated for 60 minutes. A final concentration of 3 μM 4NQ0 (prepared in 100% DMSO) was then added using the Labcyte Echo and the cells incubated for a further 60mins. The cells are then fixed by adding 40 μL 3.7% v/v formaldehyde solution for 20 minutes. After removal of fix, cells were washed with PBS and permeabilised in 40 μL of PBS containing 0.1% Triton™ X-100. Cells are then washed and 15 μl primary antibody solution (pChk1 Ser345) added and the plates incubated at 4° C. overnight. […] The plates are washed and left in 40 μl PBS. Plates were then read on an ArrayS can Vti instrument to determine staining intensities, and dose responses were obtained and used to determine the IC50 values for the compounds.

[3] = test system: HT29 cells; assay: Cellular SRB assay, potentiation of carboplatin (Test (c)); assay type: cell-based, human; details: for PF50: HT29; for IC50: Homo sapiens, HT-29, HT29 cell growth, read-out: IC50
Description: (c) Cellular—SRB Assay The potentiation factor (PF50) for compounds is a measure of the fold increase in effect of a chemotherapeutic agent, when used in combination with an ATR inhibitor. Specifically, this is calculated as a ratio of the IC50 of control cell growth in the presence of a chemotherapeutic agent, typically carboplatin, divided by the IC50 of cell growth in the presence of this agent and the ATR inhibitor of interest. For this purpose, HT29 cells were seeded at the appropriate density to ensure exponential growth throughout the time of the assay (typically 1000-1500 cells) in each well of a 96-well plate, in a volume of 80 μl and incubated overnight at 37° C. Subsequently, cells were dosed with either DMSO vehicle, or treated with test compounds at fixed concentrations (typically 1, 0.3 & 0.1 μM). Following a one hour incubation at 37° C., the cells were further treated with a 10 point dose response of the chemotherapeutic agent, based on it's known sensitivity (typically 30-0.001 ug/ml for carboplatin). Cells were left to grow for 5 days at 37° C., after which time cell growth was assessed using the sulforhodamine B (SRB) assay (Skehan, P et al, 1990 New colorimetric cytotoxic assay for anticancer-drug screening. J. Natl. Cancer Inst. 82, 1107-1112.). Specifically, the media was removed and cells fixed with 100 μl of ice cold 10% (w/v) trichloroacetic acid. The plates were then incubated at 4° C. for 20 minutes prior to washing 4 times with water. Each well was then stained with 100 μL of 0.4% (w/v) SRB in 1% acetic acid for 20 minutes before a further 4 washes with 1% acetic acid. Plates were then dried for 2 hours at room temperature and the dye was solubilized by the addition of 100 μL Tris Base pH 8.5 into each well. Plates were shaken before measuring optical density at 564 nm (OD564). In order to calculate the PF50, the OD564 values obtained for the dose-response curve of chemotherapeutic agent were expressed as a percentage of the value obtained from cells treated with vehicle alone. Similarly, to act as a control for inclusion of the ATR inhibitor, values from the chemotherapeutic agent tested in combination with a fixed ATR inhibitor concentration were expressed as a percentage of the value obtained from cells treated with the corresponding concentration of ATR inhibitor alone. From these internally-controlled curves, IC50 values were calculated and the PF50 was determined as the ratio of these values, as described above. Compounds are compared using the PF50 value at concentrations of ATR inhibitor that show minimal growth inhibition on their own. IC50 values were calculated with XLfit (IDBS, Surrey UK) using the dose response, 4 parameter logistic model #203. Top (max) and bottom (min) curve fitting was free and not locked to 100% to 0% respectively.

[4] = potentiation factor of Carboplatin at 0.03 uM ATR inhibitor
[5] = potentiation factor of Carboplatin at 0.1 uM ATR inhibitor
[6] = potentiation factor of Carboplatin at 0.3 uM ATR inhibitor
[7] = IC50 of Carboplatin + 0.03 uM ATR inhibitor
[8] = IC50 of Carboplatin + 0.1 uM ATR inhibitor
[9] = IC50 of Carboplatin + 0.3 uM ATR inhibitor

T1 sequence (Q13535 whole entry): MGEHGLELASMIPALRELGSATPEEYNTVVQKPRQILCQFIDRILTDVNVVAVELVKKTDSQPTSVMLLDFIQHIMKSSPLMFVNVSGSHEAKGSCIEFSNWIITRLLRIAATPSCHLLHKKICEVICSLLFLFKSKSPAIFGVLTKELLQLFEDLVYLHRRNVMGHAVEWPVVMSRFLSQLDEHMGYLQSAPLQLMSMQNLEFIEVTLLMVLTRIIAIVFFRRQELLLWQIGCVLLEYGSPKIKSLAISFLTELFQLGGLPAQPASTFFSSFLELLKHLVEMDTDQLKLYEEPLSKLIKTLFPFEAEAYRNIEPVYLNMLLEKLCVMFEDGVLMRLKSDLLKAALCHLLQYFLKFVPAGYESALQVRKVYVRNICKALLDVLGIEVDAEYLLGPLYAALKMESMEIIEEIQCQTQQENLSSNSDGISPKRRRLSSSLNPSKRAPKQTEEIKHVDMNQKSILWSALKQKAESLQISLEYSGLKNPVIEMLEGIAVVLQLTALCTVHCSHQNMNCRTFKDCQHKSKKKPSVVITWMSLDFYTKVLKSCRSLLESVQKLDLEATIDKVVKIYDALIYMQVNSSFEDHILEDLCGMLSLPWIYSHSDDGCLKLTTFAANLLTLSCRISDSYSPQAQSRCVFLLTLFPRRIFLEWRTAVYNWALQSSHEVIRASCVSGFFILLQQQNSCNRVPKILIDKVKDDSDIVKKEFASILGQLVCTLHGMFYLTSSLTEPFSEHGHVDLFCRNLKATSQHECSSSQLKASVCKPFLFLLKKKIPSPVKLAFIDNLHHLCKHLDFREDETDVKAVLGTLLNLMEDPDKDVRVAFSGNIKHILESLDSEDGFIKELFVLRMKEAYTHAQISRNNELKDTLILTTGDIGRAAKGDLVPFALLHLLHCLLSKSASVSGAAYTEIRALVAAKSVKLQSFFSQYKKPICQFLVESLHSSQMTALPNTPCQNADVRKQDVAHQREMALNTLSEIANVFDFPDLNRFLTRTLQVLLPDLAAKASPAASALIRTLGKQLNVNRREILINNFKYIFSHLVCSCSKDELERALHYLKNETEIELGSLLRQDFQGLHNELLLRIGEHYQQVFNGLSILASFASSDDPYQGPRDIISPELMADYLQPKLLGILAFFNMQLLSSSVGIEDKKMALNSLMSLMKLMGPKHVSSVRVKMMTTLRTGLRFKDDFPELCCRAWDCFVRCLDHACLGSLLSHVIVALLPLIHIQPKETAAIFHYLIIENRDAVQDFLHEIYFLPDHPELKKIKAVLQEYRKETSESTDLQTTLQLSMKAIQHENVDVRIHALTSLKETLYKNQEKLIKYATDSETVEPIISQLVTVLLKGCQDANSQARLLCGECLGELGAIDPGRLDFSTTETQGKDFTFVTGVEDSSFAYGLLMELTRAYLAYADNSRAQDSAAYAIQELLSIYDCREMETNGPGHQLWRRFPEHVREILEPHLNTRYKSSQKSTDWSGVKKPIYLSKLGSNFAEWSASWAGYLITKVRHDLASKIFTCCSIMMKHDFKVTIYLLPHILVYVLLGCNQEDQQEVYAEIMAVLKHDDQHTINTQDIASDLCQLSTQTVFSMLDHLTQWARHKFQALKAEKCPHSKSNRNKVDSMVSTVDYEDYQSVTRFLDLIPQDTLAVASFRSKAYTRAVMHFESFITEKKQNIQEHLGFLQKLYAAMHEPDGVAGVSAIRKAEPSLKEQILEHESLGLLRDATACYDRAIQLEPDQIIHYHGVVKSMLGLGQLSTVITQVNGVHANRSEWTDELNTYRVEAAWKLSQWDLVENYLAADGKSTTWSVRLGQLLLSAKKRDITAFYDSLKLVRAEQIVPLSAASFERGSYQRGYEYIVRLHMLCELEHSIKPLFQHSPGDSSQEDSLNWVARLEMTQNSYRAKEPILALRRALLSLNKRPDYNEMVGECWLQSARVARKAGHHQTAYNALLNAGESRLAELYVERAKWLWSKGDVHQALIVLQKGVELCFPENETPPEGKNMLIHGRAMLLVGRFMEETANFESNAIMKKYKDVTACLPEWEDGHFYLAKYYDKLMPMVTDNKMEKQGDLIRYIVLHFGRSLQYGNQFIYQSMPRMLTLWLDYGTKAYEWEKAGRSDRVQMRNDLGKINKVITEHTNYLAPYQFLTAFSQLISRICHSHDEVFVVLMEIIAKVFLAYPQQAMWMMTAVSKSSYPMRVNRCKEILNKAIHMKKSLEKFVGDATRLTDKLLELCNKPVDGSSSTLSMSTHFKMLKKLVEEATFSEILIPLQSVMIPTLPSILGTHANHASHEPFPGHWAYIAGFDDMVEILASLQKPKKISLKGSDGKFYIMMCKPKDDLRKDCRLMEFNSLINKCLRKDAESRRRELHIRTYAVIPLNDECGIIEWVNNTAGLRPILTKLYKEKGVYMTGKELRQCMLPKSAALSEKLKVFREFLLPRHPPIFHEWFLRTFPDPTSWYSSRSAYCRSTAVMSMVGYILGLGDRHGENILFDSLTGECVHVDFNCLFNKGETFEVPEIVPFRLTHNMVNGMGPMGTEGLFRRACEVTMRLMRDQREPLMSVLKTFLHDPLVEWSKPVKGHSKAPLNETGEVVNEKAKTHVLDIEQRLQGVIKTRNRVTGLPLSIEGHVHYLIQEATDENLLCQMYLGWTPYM
T1 sequence (Q8WXE1 whole entry partner): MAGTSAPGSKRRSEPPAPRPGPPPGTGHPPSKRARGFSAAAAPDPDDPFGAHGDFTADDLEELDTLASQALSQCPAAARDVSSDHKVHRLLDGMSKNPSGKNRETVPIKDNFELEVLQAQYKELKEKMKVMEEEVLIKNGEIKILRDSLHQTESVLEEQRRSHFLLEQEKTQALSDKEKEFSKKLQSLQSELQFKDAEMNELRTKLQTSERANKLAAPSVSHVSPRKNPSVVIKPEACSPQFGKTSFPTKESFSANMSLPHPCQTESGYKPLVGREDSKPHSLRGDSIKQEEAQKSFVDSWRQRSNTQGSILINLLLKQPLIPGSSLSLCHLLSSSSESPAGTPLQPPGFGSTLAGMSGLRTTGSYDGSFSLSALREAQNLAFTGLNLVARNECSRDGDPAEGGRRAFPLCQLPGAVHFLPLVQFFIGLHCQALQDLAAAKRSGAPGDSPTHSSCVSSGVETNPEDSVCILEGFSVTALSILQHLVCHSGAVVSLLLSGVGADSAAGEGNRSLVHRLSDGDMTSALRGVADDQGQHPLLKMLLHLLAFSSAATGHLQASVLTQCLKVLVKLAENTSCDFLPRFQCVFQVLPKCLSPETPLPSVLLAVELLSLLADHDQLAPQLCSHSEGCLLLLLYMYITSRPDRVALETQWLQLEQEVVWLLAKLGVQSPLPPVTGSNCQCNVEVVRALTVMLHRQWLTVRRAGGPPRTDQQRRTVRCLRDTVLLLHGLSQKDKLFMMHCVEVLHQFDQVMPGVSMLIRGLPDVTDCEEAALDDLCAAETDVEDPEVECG

| IC50 [1] | IC50 [2] | IC50 [3, 7] | IC50 [3, 8] | IC50 [3, 9] | SMILES | PF50 [3, 4] | PF50 [3, 5] | PF50 [3, 6] |
| --- | --- | --- | --- | --- | --- | --- | --- | --- |
| 34 nM | 581 nM |  |  |  | C[C@@H]1COCCN1c1cc(C[S@](C)(=N)=O)nc(-c2ccnc3[nH]ccc23)n1 [Example 1.01, 4-{4-[(3R)-3-Methylmorpholin-4-yl]-6-[((R)—S-methylsulfonimidoyl)methyl]pyrimidin-2-yl}-1H-pyrrolo[2,3-b]pyridine] |  |  |  |
|  |  | 9.39 µg/mL | 6.37 µg/mL | 2.99 µg/mL | C[C@@H]1COCCN1c1cc(C2([S@](C)(=N)=O)CC2)nc(-c2ccnc3[nH]ccc23)n1 [Example 2.02, 4-{4-[(3R)-3-Methylmorpholin-4-yl]-6-[1-((R)—S-methylsulfonimidoyl)cyclopropyl]pyrimidin-2-yl}-1H-pyrrolo[2,3-b]pyridine] | 1.331 | 1.966 | 4.211 |
|  |  | 5.74 µg/mL | 2.01 µg/mL | 0.63 µg/mL | CNc1nc2ccccc2n1-c1nc(N2CCOC[C@H]2C)cc(C2([S@](C)(=N)=O)CC2)n1 [Example 2.03, N-Methyl-1-{4-[(3R)-3-methylmorpholin-4-yl]-6-[1-((R)—S-methylsulfonimidoyl)cyclopropyl]pyrimidin-2-yl}-1H-benzimidazol-2-amine] | 2.057 | 5.887 | 18.721 |
